Assay results from ChEMBL document CHEMBL1201862, “PubChem BioAssay data set” (2004).
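1) Cells in 96-well plates. 2) Compound, 48 h, 5 concentrations. 3) Linear interpolation between surrounding doses. 4) Unreached endpoint = highest concentration. At the GI50, growth is halved.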 The source made the active and inactive calls. Rule as the data show it: active = GI50 up to about 1.1 µM and inactive = higher.

Key:
Assay in all cases: inhibition of tumour cell growth, NCI panel, 48 h
[1] = system: 786-0
[2] = system: A549
[3] = system: ACHN
[4] = system: BT-549
[5] = system: CAKI-1
[6] = system: Hs-578T
[7] = system: IGROV-1
[8] = system: LOX IMVI
[9] = system: MDA-MB-435
[10] = system: Malme-3M
[11] = system: NCI/ADR-RES
[12] = system: RPMI-8226
[13] = system: SK-MEL-28
[14] = system: SK-MEL-2
[15] = system: SK-MEL-5
[16] = system: SNB-19
[17] = system: T47D
[18] = system: UO-31
[19] = system: HL-60
[20] = system: K562

Measured: GI50

Cn1c(N)c(/C=N/NC(=O)CC#N)c(=O)n(C)c1=O
inactive: [1] > 100 µM | [2] > 100 µM | [3] > 100 µM | [4] > 100 µM | [5] > 100 µM | [6] > 100 µM | [7] > 100 µM | [8] > 100 µM | [9] > 100 µM | [10] 59.8 µM | [11] > 100 µM | [12] > 100 µM | [13] > 100 µM | [14] > 100 µM | [15] > 100 µM | [16] > 100 µM | [17] > 100 µM | [18] > 100 µM

CC(=O)CC1CCC(=O)CCC(=O)OC(CC(C)=O)CCC(=O)CCC(=O)O1 (centres undefined)
inactive: [1] > 100 µM | [2] > 100 µM | [3] > 100 µM | [4] > 100 µM | [19] > 100 µM | [6] > 100 µM | [7] > 100 µM | [20] > 100 µM | [9] > 100 µM | [10] > 100 µM | [11] > 100 µM | [12] > 100 µM | [13] > 100 µM | [15] > 100 µM | [16] > 100 µM | [17] > 100 µM

COC(=O)CC1c2ccccc2N2C(=O)Cc3c([nH]c4ccccc34)C12 (centres undefined)
inactive: [1] 58.6 µM | [2] > 100 µM | [3] > 100 µM | [4] > 100 µM | [5] > 100 µM | [6] 25.4 µM | [7] > 100 µM | [20] 35.8 µM | [8] > 100 µM | [9] > 100 µM | [10] 66.5 µM | [11] > 100 µM | [12] > 100 µM | [13] > 100 µM | [14] > 100 µM | [15] > 100 µM | [16] > 100 µM | [17] > 100 µM | [18] > 100 µM

CCCCC1C=Cn2c(=O)oc3c(OC(C)C)c(OC(C)C)c(O)c1c32 (centres undefined)
inactive: [1] 20 µM | [2] 17.2 µM | [3] 36.6 µM | [4] 14.3 µM | [5] 15.1 µM | [19] 4.56 µM | [6] 18.3 µM | [8] 14.3 µM | [9] 12.5 µM | [13] 13.6 µM | [14] 15.3 µM | [15] 14.7 µM | [16] 18.2 µM | [17] 4.44 µM | [18] 13.6 µM

O=C(OCC1CCCN2CCCCC12)c1ccncc1 (centres undefined)
inactive: [1] > 100 µM | [2] > 100 µM | [3] > 100 µM | [4] > 100 µM | [5] > 100 µM | [6] > 100 µM | [7] > 100 µM | [20] > 100 µM | [8] > 100 µM | [9] > 100 µM | [10] > 100 µM | [11] > 100 µM | [12] > 100 µM | [13] > 100 µM | [14] > 100 µM | [15] > 100 µM | [16] > 100 µM | [17] > 100 µM | [18] > 100 µM

C/C(=N\Nc1ccc([N+](=O)[O-])cc1[N+](=O)[O-])c1ccc2ccccc2n1
inactive: [1] 78.3 µM | [2] 57.5 µM | [3] 42.8 µM | [4] 53.6 µM | [5] 58.9 µM | [6] 25.3 µM | [7] 28.1 µM | [20] > 100 µM | [9] > 100 µM | [10] > 100 µM | [11] 46 µM | [12] > 100 µM | [13] > 100 µM | [14] > 100 µM | [15] 47.1 µM | [16] 20 µM | [17] > 100 µM | [18] 51.4 µM

CSc1nc2c(c(N(C)C)n1)C(O)n1c(nc3ccccc31)S2 (centres undefined)
inactive: [1] 26.8 µM | [2] > 71.9 µM | [3] > 83.9 µM | [4] 67 µM | [5] > 58.5 µM | [6] 14.1 µM | [7] 30.2 µM | [20] > 100 µM | [8] 9.38 µM | [9] > 100 µM | [10] 28.6 µM | [11] 37.8 µM | [12] > 100 µM | [13] 46.2 µM | [14] > 100 µM | [15] 56.2 µM | [16] 25.4 µM | [17] 38.1 µM | [18] > 50.2 µM

O=c1[nH]c(=O)n(C2CC(O)C(CO)O2)c2nc3cc4ccccc4cc3nc12 (centres undefined)
inactive: [1] > 100 µM | [2] > 100 µM | [3] > 100 µM | [4] > 100 µM | [5] > 100 µM | [6] > 100 µM | [7] 98.4 µM | [20] > 100 µM | [8] > 100 µM | [9] > 100 µM | [10] > 100 µM | [11] > 100 µM | [12] > 100 µM | [13] > 100 µM | [14] > 100 µM | [15] > 100 µM | [16] 14.5 µM | [17] > 100 µM | [18] > 100 µM

c1ccc(CNc2nncc3[nH]cnc23)cc1
inactive: [1] > 100 µM | [2] > 100 µM | [3] > 100 µM | [4] > 100 µM | [5] > 100 µM | [19] > 100 µM | [7] > 100 µM | [20] > 100 µM | [8] 88.9 µM | [9] > 100 µM | [10] 59.6 µM | [11] > 100 µM | [12] > 100 µM | [13] > 100 µM | [14] > 100 µM | [15] > 100 µM | [17] > 100 µM | [18] > 100 µM

COC(=O)c1ccc2c(c1)CC1(C2)Cc2cc3c(c(C(=O)OC)c2C1)CCCC3 (centres undefined)
inactive: [1] 64.1 µM | [2] 83.9 µM | [3] 47.8 µM | [4] > 10 µM | [5] 28.8 µM | [19] 31.5 µM | [6] > 100 µM | [7] > 100 µM | [20] 41.1 µM | [8] 51.4 µM | [9] 84.1 µM | [10] > 100 µM | [11] 82.8 µM | [12] 38.4 µM | [13] > 100 µM | [15] 21.2 µM | [17] 47.3 µM | [18] > 100 µM

CCOC(=O)c1sc(=S)n(-c2ccc(Cl)cc2)c1-n1cc(-c2ccccc2)c(C#N)c1N
inactive: [1] 11 µM | [2] 18.8 µM | [3] 16.7 µM | [4] 23.7 µM | [5] > 100 µM | [19] 34.2 µM | [6] 4.19 µM | [7] 15.3 µM | [20] 44.4 µM | [8] 43.5 µM | [9] 41 µM | [11] 16.9 µM | [12] 26.5 µM | [13] 38.2 µM | [14] 20.4 µM | [15] 16.3 µM | [16] 19 µM | [17] 13.1 µM

COC1(OC)N=C(N)C2(C#N)C3(C(=O)N(C(C)C)N=C3C)C12C#N (centres undefined)
inactive: [1] > 100 µM | [2] > 100 µM | [3] > 100 µM | [4] > 100 µM | [5] > 100 µM | [19] > 100 µM | [7] > 100 µM | [20] > 100 µM | [9] > 100 µM | [10] > 100 µM | [11] > 100 µM | [12] > 100 µM | [13] > 100 µM | [14] > 100 µM | [16] > 100 µM | [17] > 100 µM | [18] > 100 µM

COC(=O)CNC(=O)c1cc(C)cc2c1Oc1c(cc(C)cc1C(=O)NCC(=O)OC)S2
inactive: [1] 39.4 µM | [2] 37.6 µM | [3] 25.6 µM | [4] > 100 µM | [5] > 100 µM | [6] 65.6 µM | [7] > 100 µM | [20] > 100 µM | [8] 96.4 µM | [9] > 100 µM | [10] 17.9 µM | [11] > 100 µM | [12] 40 µM | [13] 47.8 µM | [14] > 100 µM | [16] > 100 µM | [17] > 100 µM

O=C1c2cc3ccccc3cc2C2(c3ccc(Cl)cc3)NCCN12 (centres undefined)
inactive: [1] 38.1 µM | [2] 28.4 µM | [3] 33 µM | [4] 54 µM | [5] 44.7 µM | [19] 25.8 µM | [6] 38.3 µM | [7] 27.4 µM | [20] 61.7 µM | [8] 21.9 µM | [9] 33 µM | [11] 32.8 µM | [12] 29.4 µM | [13] 39.6 µM | [14] 24.6 µM | [15] 20 µM | [16] 24.5 µM | [17] 39.7 µM | [18] 29.9 µM

CC(C)(CO)N1CCN(C(S)=Nc2ccccc2)CC1
inactive: [1] > 100 µM | [2] > 100 µM | [3] > 100 µM | [4] > 100 µM | [5] > 100 µM | [6] > 100 µM | [7] > 100 µM | [20] 64.3 µM | [8] > 100 µM | [9] > 100 µM | [10] > 100 µM | [11] > 100 µM | [12] > 100 µM | [13] > 100 µM | [14] > 100 µM | [15] > 100 µM | [16] > 100 µM | [17] > 100 µM | [18] > 100 µM
